Data on two molecules can be found in patent US11092596B2, “Material and method to screen proteasome stimulators” (Purdue Research Foundation, priority 2017, dated 2021).

In assay [1] the target is T1, chymotrypsin-like activity of the 20S CP (Homo sapiens, UniProt P28074).
T1 construct: 5 μL purified 20S proteasome (90 nM in Tris-HCl) was added to the control and test wells
In words: Kinetic assay, CT-L FRET reporter hydrolysis by purified 20S CP. Type of assay: biochemical. To be noted: CT-L FRET reporter; for EC50: dose response 0.78125-400 μM, triplicate, read-out: EC50 (concentration of half of the maximum stimulation) for 20S CP stimulation. How it is done:
(§1) Plate preparation for the kinetic assay was performed similarly for all assays. All 96-well plates contained the following in triplicate: reporter background, containing reporter only, and control wells, containing reporter and purified 20S CP. It was determined that each well will contain a total volume of 50 μL. To each well was added 40 μL of the coumarin or FRET reporters (in Tris-HCl, 50 mM, pH 7.7). To the reporter background wells was added 7.5 μL Tris-HCl and 2.5 μL of the solvent in which the compound of interest was dissolved or diluted. Similarly, to the control wells was added 2.5 μL Tris-HCl and 2.5 μL of the solvent in which the compound of interest was dissolved or diluted. To the test wells was added 2.5 μL Tris-HCl and 2.5 μL of the compound of interest at a predetermined concentration. Immediately prior to running the assay on the Synergy 4 Plate Reader, 5 μL purified 20S proteasome (90 nM in Tris-HCl) was added to the control and test wells.
The Synergy 4 Plate Reader was set to heat the plate at 37° C. and read fluorescence every 2 min over a 40 min period. The excitation and emission wavelengths were set according to the reporter. For the FRET reporter, the excitation and emission wavelengths were set to 335 nm and 493 nm, respectively, corresponding to the excitation and emission wavelengths of the Edans fluorophore. For the coumarin reporter, the excitation and emission wavelengths were set to 380 nm and 460 nm, respectively.
(§2) AM-404 was used as a positive control compound to test the dose-response screening capabilities of the CT-L FRET reporter. The following concentrations of AM-404 were tested in triplicate: 50, 25, and 12.5 μM. To each well was added 40 μL 20 μM CT-L FRET (in Tris-HCl, 50 mM, pH 7.7). To the reporter background wells was added 5 μL Tris-HCl and 5 μL 1:1 Tris-HCl:DMSO. Similarly, to the control wells was added 5 μL 1:1 Tris-HCl:DMSO. To the 50 μM AM-404 test wells was added 2.5 μL Tris-HCl and 2.5 μL 1000 μM AM-404 in DMSO. To the 25 μM AM-404 test wells was added 2.5 μL Tris-HCl and 2.5 μL 500 μM AM-404 in DMSO. To the 12.5 μM AM-404 test wells was added 2.5 μL Tris-HCl and 2.5 μL 250 μM AM-404 in DMSO. Immediately prior to running the assay on the Synergy 4 Plate Reader, 5 μL purified 20S proteasome (90 nM in Tris-HCl) was added to the control and test wells. The assay was performed using the Synergy 4 plate reader as described for the general screening kinetic assay procedure.
as §2, with “Fenofibrate was” for “AM-404 was”, “a negative” for “a positive”, “of fenofibrate” for “of AM-404”, “μM fenofibrate” for “μM AM-404”, “procedure. […]” for “procedure.”

In assay [2] the target is trypsin-like activity of the 20S CP (Homo sapiens, UniProt Q99436). In words: Kinetic assay, T-L FRET reporter hydrolysis by purified 20S CP. Type of assay: biochemical. To be noted: 25 μM compound, T-L FRET reporter; basal level set to 100%. How it is done: as §1
The Synergy 4 Plate Reader was set to heat the plate at 37° C. and read fluorescence every 2 min over a 40 min period. The excitation and emission wavelengths were set according to the reporter. For the FRET reporter, the excitation and emission wavelengths were set to 335 nm and 493 nm, respectively, corresponding to the excitation and emission wavelengths of the Edans fluorophore. […]
Stimulation of the 20S proteasome with SDS was determined using both the coumarin and FRET reporters for the chymotrypsin-like and trypsin-like activities of the 20S CP. […] Immediately prior to running the assay on the Synergy 4 Plate Reader, 5 μL purified 20S proteasome (90 nM in Tris-HCl) was added to the control and test wells. The assay was performed using the Synergy 4 plate reader as described for the general screening kinetic assay procedure. […]
To each well was added 40 μL 20 μM T-L FRET reporter (in Tris-HCl, 50 mM, pH 7.7). […] Immediately prior to running the assay on the Synergy 4 Plate Reader, 5 μL purified 20S proteasome (90 nM in Tris-HCl) was added to the control and test wells.

With `C[C@H]1[C@H](C)CC[C@]2(C(=O)O)CC[C@]3(C)C(=CC[C@@H]4[C@@]5(C)CC[C@H](O)C(C)(C)[C@@H]5CC[C@]43C)[C@H]12` [Compound 2, ursolic acid], in assay [1], the EC50 amounted to 14 µM. Also, the “20S CP stimulation over basal level (dose response curve)” value in assay [1] (maximum of dose response curve) worked out at 100%. Further, the “stimulation of the trypsin-like activity of the 20S CP” value in assay [2] is 234%.
For `Cc1c(C)c2c(c(C)c1OC(=O)CCC(=O)O)CC[C@@](C)(CCC[C@H](C)CCC[C@H](C)CCCC(C)C)O2` [Compound 3, vitamin E succinate], the EC50 in assay [1] stood at 7 µM. In assay [2], the “stimulation of the trypsin-like activity of the 20S CP” value is 146%.
